ChEMBL document CHEMBL1949581, “Anion inhibition studies of an α-carbonic anhydrase from the living fossil Astrosclera willeyana” (Bioorg Med Chem Lett, 2012)

Biological target: T1, Astrosclerin-3 (Astrosclera willeyana, UniProt A6YCJ1)
T1 sequence (A6YCJ1 whole entry): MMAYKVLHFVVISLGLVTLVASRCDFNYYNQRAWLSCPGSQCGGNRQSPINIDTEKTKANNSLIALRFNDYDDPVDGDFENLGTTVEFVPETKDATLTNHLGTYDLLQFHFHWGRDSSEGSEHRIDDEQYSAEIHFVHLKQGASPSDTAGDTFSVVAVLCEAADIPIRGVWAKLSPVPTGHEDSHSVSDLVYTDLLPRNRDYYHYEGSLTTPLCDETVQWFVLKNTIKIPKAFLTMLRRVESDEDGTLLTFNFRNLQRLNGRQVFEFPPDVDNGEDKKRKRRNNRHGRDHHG
Test: biochemical
Assay type: cell-based
Description: Inhibition of Astrosclera willeyana recombinant GST-tagged astrosclerin 3 expressed in Escherichia coli BL21-DE3-RIPL cells preincubated for 15 mins measured for 10 to 100 secs by stopped flow CO2 hydration assay

Point of comparison: `S` [SODIUM HYDROSULFIDE], Ki 490 µM. Against it:
- S=C(S)S [SODIUM CARBONOTRITHIOATE] — within 1.5-fold, 710 µM
- [Cl-].[Na+] [SODIUM CHLORIDE] — within 1.5-fold, 460 µM
- F[B-](F)(F)F.[Na+] [SODIUM TETRAFLUOROBORATE] — higher, > 200000 µM
- [I-].[Na+] [SODIUM IODIDE] — 21-fold higher, 10400 µM
- N#C[SeH] [SODIUM SELENOCYANATE] — 1.6-fold higher, 770 µM
- O=[N+]([O-])[O-].[Na+] [SODIUM NITRATE] — 160-fold higher, 76400 µM
- O=S(=O)(O)OS(=O)(=O)O [SODIUM PYROSULFATE] — 180-fold higher, 88100 µM
- O=[Se](=O)(O)O [SODIUM SELENATE] — 1.8-fold higher, 880 µM
- O=S([O-])O.[Na+] [SODIUM BISULFITE] — 1.5-fold lower, 320 µM
- O=NO [SODIUM NITRITE] — 130-fold higher, 63800 µM
- O=S(=O)([O-])[O-].[Na+].[Na+] [SODIUM SULFATE ANHYDROUS] — 160-fold higher, 76300 µM
- O=P(O)(O)OP(=O)(O)O [SODIUM PYROPHOSPHATE] — 120-fold higher, 57700 µM
- [O-][Cl+3]([O-])([O-])O [SODIUM PERCHLORATE] — 10-fold higher, 5110 µM
- [N-]=[N+]=[N-] [SODIUM AZIDE] — 57-fold higher, 27800 µM
- NS(N)(=O)=O [SULFAMIDE] — 55-fold lower, 8.9 µM
- [Br-].[Na+] [SODIUM BROMIDE] — 62-fold higher, 30600 µM
- O=[Te](=O)(O)O [SODIUM TELLURATE] — 1.5-fold higher, 750 µM
- O=S(=O)(O)NS(=O)(=O)O [SODIUM IMINODISULFONATE] — within 1.5-fold, 660 µM
- N#CO [SODIUM CYANATE] — 2.1-fold lower, 230 µM
- OB(O)c1ccccc1 [PHENYLBORONIC ACID] — 51-fold lower, 9.6 µM
- [F-].[Na+] [SODIUM FLUORIDE] — 1.9-fold higher, 940 µM
- NS(=O)(=O)O [SODIUM SULFAMATE] — 38-fold lower, 13 µM
- CCN(CC)C(=S)S [DITIOCARB SODIUM] — within 1.5-fold, 450 µM
- O=C([O-])[O-].[Na+].[Na+] [SODIUM CARBONATE] — 28-fold higher, 13500 µM
- O=BOB(O)OB(O)OB=O [SODIUM TETRABORATE] — 45-fold higher, 21900 µM
- O=C([O-])O.[Na+] [SODIUM BICARBONATE] — 47-fold higher, 22800 µM
- O=S(=O)(O)OOS(=O)(=O)O [SODIUM PERSULFATE] — 140-fold higher, 70600 µM
